Measured values from patent EP0726261A1, “Herbidical 1,2,4 thiadiazoles” (American Cyanamid Company, priority 1995, dated 1996).

Legend:
Format in all cases: in vivo
Beta vulgaris [1] = experiment: Herbicidal activity, postemergence test (Example 66); design: key: A rating of 0 indicates growth as untreated control; a rating of 9 indicates death; details: post; 1000 g/ha; assessed visually twenty days after spraying
Experimental: (§1) To evaluate their herbicidal activity, compounds according to the invention are tested using a representative range of plants: ZEAMX Zea mays ORYSA Oryza sativa GLXMA Glycine max BEAVA Beta vulgaris LIUUT Linum usitatissimum AVEFA Avena fatua ECHCG Echinochloa crus-galli SINAL Sinapsis alba
(§2) The tests fall into two categories, preemergence and postemergence. The preemergence tests involve spraying a liquid formulation of the compound onto the soil in which the seeds of the plant species mentioned above have recently been sown. The postemergence tests involve spraying a liquid formulation of the compound onto seedling plants of the above species.
(§3) The soil used in the tests is a prepared horticultural loam.
(§4) The formulations used in the tests are prepared from solutions of the test compounds in acetone containing 0.4% by weight of an alkylphenol/ethylene oxide condensate available under the trademark TRITON X-155. These acetone solutions are diluted with water and the resulting formulations applied at dosage levels corresponding to 1000 g of active material per hectare in a volume equivalent to 900 litres per hectare.
(§5) In the preemergence tests, untreated sown soil, and in the postemergence tests, untreated soil bearing seedling plants, are used as controls.
(§6) The herbicidal effects of the test compounds are assessed visually twenty days after spraying the foliage and the soil and are recorded on a 0-9 scale. A rating of 0 indicates growth as untreated control, a rating of 9 indicates death. An increase of 1 unit on the linear scale approximates to an 11% increase in the level of effect.

Sinapsis alba [2] = experiment: as above; design: key: A rating of 0 indicates growth as untreated control; a rating of 9 indicates death; details: post; 1000 g/ha; assessed visually twenty days after spraying
Experimental: as §1, §2, §3, §4, §5, §6

Echinochloa crus-galli [3] = experiment: as above; design: key: A rating of 0 indicates growth as untreated control; a rating of 9 indicates death; details: post; 1000 g/ha; assessed visually twenty days after spraying
Experimental: as §1, §2, §3, §4, §5, §6

Linum usitatissimum [4] = experiment: as above; design: key: A rating of 0 indicates growth as untreated control; a rating of 9 indicates death; details: post; 1000 g/ha; assessed visually twenty days after spraying
Experimental: as §1, §2, §3, §4, §5, §6

Oryza sativa [5] = experiment: as above; design: key: A rating of 0 indicates growth as untreated control; a rating of 9 indicates death; details: post; 1000 g/ha; assessed visually twenty days after spraying
Experimental: as §1, §2, §3, §4, §5, §6

Avena fatua [6] = experiment: as above; design: key: A rating of 0 indicates growth as untreated control; a rating of 9 indicates death; details: post; 1000 g/ha; assessed visually twenty days after spraying
Experimental: as §1, §2, §3, §4, §5, §6

Zea mays [7] = experiment: as above; design: key: A rating of 0 indicates growth as untreated control; a rating of 9 indicates death; details: post; 1000 g/ha; assessed visually twenty days after spraying
Experimental: as §1, §2, §3, §4, §5, §6

Glycine max [8] = experiment: as above; details: post; 1000 g/ha; assessed visually twenty days after spraying
Experimental: as §1, §2, §3, §4, §5, §6

Beta vulgaris [9] = experiment: Herbicidal activity, preemergence test (Example 66); design: key: A rating of 0 indicates growth as untreated control; a rating of 9 indicates death; details: pre; 1000 g/ha; assessed visually twenty days after spraying
Experimental: as §1, §2, §3, §4, §5, §6

Glycine max [10] = experiment: as above; design: key: A rating of 0 indicates growth as untreated control; a rating of 9 indicates death; details: pre; 1000 g/ha; assessed visually twenty days after spraying
Experimental: as §1, §2, §3, §4, §5, §6

Sinapsis alba [11] = experiment: as above; design: key: A rating of 0 indicates growth as untreated control; a rating of 9 indicates death; details: pre; 1000 g/ha; assessed visually twenty days after spraying
Experimental: as §1, §2, §3, §4, §5, §6

Echinochloa crus-galli [12] = experiment: as above; design: key: A rating of 0 indicates growth as untreated control; a rating of 9 indicates death; details: pre; 1000 g/ha; assessed visually twenty days after spraying
Experimental: as §1, §2, §3, §4, §5, §6

Linum usitatissimum [13] = experiment: as above; design: key: A rating of 0 indicates growth as untreated control; a rating of 9 indicates death; details: pre; 1000 g/ha; assessed visually twenty days after spraying
Experimental: as §1, §2, §3, §4, §5, §6

Oryza sativa [14] = experiment: as above; design: key: A rating of 0 indicates growth as untreated control; a rating of 9 indicates death; details: pre; 1000 g/ha; assessed visually twenty days after spraying
Experimental: as §1, §2, §3, §4, §5, §6

Avena fatua [15] = experiment: as above; design: key: A rating of 0 indicates growth as untreated control; a rating of 9 indicates death; details: pre; 1000 g/ha; assessed visually twenty days after spraying
Experimental: as §1, §2, §3, §4, §5, §6

Zea mays [16] = experiment: as above; design: key: A rating of 0 indicates growth as untreated control; a rating of 9 indicates death; details: pre; 1000 g/ha; assessed visually twenty days after spraying
Experimental: as §1, §2, §3, §4, §5, §6

Row | Compound | herbicidal effects on a 0-9 scale, BEAVA (Beta vulgaris [1]) | herbicidal effects on a 0-9 scale, SINAL (Sinapsis alba [2]) | herbicidal effects on a 0-9 scale, ECHCG (Echinochloa crus-galli [3]) | herbicidal effects on a 0-9 scale, LIUUT (Linum usitatissimum [4]) | herbicidal effects on a 0-9 scale, ORYSA (Oryza sativa [5]) | herbicidal effects on a 0-9 scale, AVEFA (Avena fatua [6]) | herbicidal effects on a 0-9 scale, ZEAMX (Zea mays [7]) | herbicidal effects on a 0-9 scale, GLXMA (Glycine max [8]) | herbicidal effects on a 0-9 scale, BEAVA (Beta vulgaris [9]) | herbicidal effects on a 0-9 scale, GLXMA (Glycine max [10]) | herbicidal effects on a 0-9 scale, SINAL (Sinapsis alba [11]) | herbicidal effects on a 0-9 scale, ECHCG (Echinochloa crus-galli [12]) | herbicidal effects on a 0-9 scale, LIUUT (Linum usitatissimum [13]) | herbicidal effects on a 0-9 scale, ORYSA (Oryza sativa [14]) | herbicidal effects on a 0-9 scale, AVEFA (Avena fatua [15]) | herbicidal effects on a 0-9 scale, ZEAMX (Zea mays [16])
1 | CC(C)Cc1nsc(C(=O)N[C@@H](C)c2ccccc2)n1 [Example 13, (S)-3-Isobutyl-[1,2,4]thiadiazole-5-carboxylic acid, 1-(phenylethyl)amide] | 9 | 8 | 8 | 7 | 0 | 5 | 2 | 5 | 5 | 0 | 4 | 2 | 0 | 0 | 0 | 0
2 | CC(C)Cc1nsc(C(=O)NCc2cccs2)n1 [Example 11] | 4 | 7 | 2 | 2 | 0 | 0 | 0 | 2 | 0 | 0 | 0 | 0 | 0 | 0 | 0 | 0
3 | C[C@H](NC(=O)c1nc(-c2ccc(F)cc2)ns1)c1ccccc1 [Example 16, (S)-3-(4-Fluorophenyl)-[1,2,4]thiadiazole-5-carboxylic acid, 1-(phenylethyl)amide] | 9 | 9 | 8 | 7 | 2 | 7 | 0 | 6 | 0 | 0 | 0 | 0 | 0 | 0 | 0 | 0
